Read-outs that look alike come from different tables or passages of the source.
Key:
[1] = system: MSTO-211H (biphasic phenotype) malignant pleural mesothelioma cells; test: Cell viability assay (Trypan blue dye exclusion), MSTO-211H; type: cell-based, human
Protocol: (§1) Complexes 6–9 were tested on a panel of human MPM cell lines together with CDDP and SAA1, added for comparison (Table 1). The half-maximal inhibitory concentration, IC50, was determined on MSTO-211H (biphasic phenotype), REN (epithelioid), BR95 (epithelioid), and MM98 (sarcomatoid) cancer cell lines to identify the most promising Pt(IV) conjugate to be further investigated. To determine the number of viable cells, the use of the dye exclusion assay was preferred to the colorimetric assay because of the heterogeneity in the energy metabolism between the different MPM cell lines. This may justify minor differences with respect to the previously published IC50 for CDDP [40].
(§2) Cells were seeded at a density of 10 × 10^4 cells per well in 6-well plates in RPMI medium supplemented with 10% fetal bovine serum (FBS), 100 μg mL^−1 streptomycin, and 10 μg mL^−1 penicillin and incubated overnight at 37 °C in a humidified environment containing 5% CO2 to allow adherence. Cisplatin was dissolved in 0.9% w/v aqueous NaCl brought to pH = 3 with HCl (final stock concentration 1 mM). The Pt(IV) complexes were dissolved in DMSO (final stock concentration 5 mM); the resulting solutions were microfiltered (0.45 μm) and their Pt content was checked by ICP-MS (see Section 3.5.2). These mother solutions were diluted in complete medium to the required concentration range.
(§3) Following 72 h of treatment with the diluent of the compound (Ctrl) or different doses of the Pt compounds, cells were trypsinized and stained with Trypan blue. The number of cells considered viable (unstained cells) was counted in a Bürker haemocytometer within 5 min after staining.

[2] = system: REN (epithelioid) malignant pleural mesothelioma cells; test: Cell viability assay (Trypan blue dye exclusion), REN; type: cell-based, human; details: 72 h treatment; for IC50: mean ± sd
Protocol: as §1, §2, §3

[3] = system: BR95 (epithelioid) malignant pleural mesothelioma cells; test: Cell viability assay (Trypan blue dye exclusion), BR95; type: cell-based, human; details: 72 h treatment; for IC50: mean ± sd
Protocol: as §1, §2, §3

[4] = system: MM98 (sarcomatoid) malignant pleural mesothelioma cells; test: Cell viability assay (Trypan blue dye exclusion), MM98; type: cell-based, human; details: 72 h treatment; for IC50: mean ± sd
Protocol: as §1, §2, §3

MSTO-211H cells = test: Cell uptake (intracellular Pt by ICP-MS); type: cell-based, human; details: 10 μM, 4 h treatment, mean ± sd
Protocol: Cellular accumulation of compounds 6–9 was evaluated by means of the intracellular Pt uptake after 4 h treatment of MSTO-211H cells and expressed as ng Pt per 10^6 cells (Table 1). As expected, the Fmoc protection of 6 and 7 enhances the lipophilicity of the complexes, facilitating their cell uptake. Also the elongation of the organic linker from -(CH2)2- to -(CH2)6- increases (to a minor extent) the lipophilicity in 7 and 9 with respect to 6 and 8.
MSTO-211H cells were seeded in […] Petri dishes and challenged with the compounds and mixtures under investigations (10 μM) in complete medium. At the end of the exposure, cells were washed three times with phosphate buffered saline (PBS) and detached from the Petri dishes using 0.05% Trypsin 1X + 2% EDTA (HyClone, Thermo Fisher). The cells were harvested in fresh complete medium and an automatic cell counting device (Countess®, Life Technologies, Carlsbad, CA, USA) was used to measure the number and the mean diameter from every cell count. The harvested cells were transferred into a borosilicate glass tube and centrifuged at 1100× g rpm for 5 min at room temperature. The supernatant was carefully removed by aspiration, but about 200 μL of the supernatant was left in order to limit the cellular loss. Finally, the cellular pellets were stored at −80 °C. Platinum content determination was performed by ICP-MS (Thermo Optek X Series 2). Complete mineralization was obtained by the addition of 70% w/w HNO3 to each sample (after defrosting), followed by incubation for 1 h at 60 °C in an ultrasonic bath. Before the ICP-MS measurement, the HNO3 was diluted to a final 1% concentration. The instrumental settings were optimized to yield maximum sensitivity for platinum, and the most abundant isotopes of Pt (m/z = 195) and In (m/z = 115, used as internal standard) were quantified. The level of Pt found in cells after the treatment was normalized to the cell number and expressed as ng of Pt per 10^6 cells.

PARP-1 = molecular target: T1, PARP-1 (Homo sapiens, UniProt P09874); test: Western blot of poly(ADP-ribose) (PAR) and PARP-1 in MSTO-211H cells; type: cell-based; details: 5 µM, 72 h
T1 construct: endogenous in cells; host or cells: MSTO-211H cells
T1 sequence (P09874 whole entry): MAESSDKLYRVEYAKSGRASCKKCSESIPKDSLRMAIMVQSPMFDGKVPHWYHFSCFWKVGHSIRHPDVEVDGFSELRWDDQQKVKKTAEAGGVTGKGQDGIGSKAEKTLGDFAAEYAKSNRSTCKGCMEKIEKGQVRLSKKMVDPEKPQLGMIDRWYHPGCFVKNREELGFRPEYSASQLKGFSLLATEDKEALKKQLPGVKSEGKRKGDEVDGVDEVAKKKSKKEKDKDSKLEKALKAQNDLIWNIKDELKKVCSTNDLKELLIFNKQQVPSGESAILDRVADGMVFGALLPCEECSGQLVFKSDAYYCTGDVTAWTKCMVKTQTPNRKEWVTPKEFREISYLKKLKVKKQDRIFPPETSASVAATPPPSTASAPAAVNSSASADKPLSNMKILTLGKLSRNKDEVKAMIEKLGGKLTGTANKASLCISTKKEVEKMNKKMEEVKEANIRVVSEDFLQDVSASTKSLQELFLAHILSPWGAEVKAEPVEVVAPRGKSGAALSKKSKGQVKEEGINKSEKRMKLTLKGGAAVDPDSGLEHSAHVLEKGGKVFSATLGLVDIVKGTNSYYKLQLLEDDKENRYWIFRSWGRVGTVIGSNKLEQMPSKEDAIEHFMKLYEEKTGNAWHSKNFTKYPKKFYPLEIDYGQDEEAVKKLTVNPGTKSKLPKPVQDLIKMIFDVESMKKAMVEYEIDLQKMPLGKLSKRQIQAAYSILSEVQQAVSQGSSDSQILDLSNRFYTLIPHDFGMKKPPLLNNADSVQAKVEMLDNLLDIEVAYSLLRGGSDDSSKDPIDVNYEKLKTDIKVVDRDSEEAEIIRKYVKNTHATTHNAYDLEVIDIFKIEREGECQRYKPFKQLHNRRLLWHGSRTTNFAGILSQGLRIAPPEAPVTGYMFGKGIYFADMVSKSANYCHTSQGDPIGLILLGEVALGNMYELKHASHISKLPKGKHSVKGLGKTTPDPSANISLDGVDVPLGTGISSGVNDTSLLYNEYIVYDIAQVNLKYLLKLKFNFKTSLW
Protocol: The effect of the most promising complex 6 on PARP-1 activity was further evaluated. MSTO-211H cells were treated with equimolar concentrations (5 µM) of 6, CDDP, and 3-ABA for 72 h. The two last compounds were used either alone or in combination in a 1:1 molar ratio. Western blot analysis evaluated the expression of poly(ADP-ribose) (PAR), which is the product of PARP-1 activity (Figure 4A).
For protein analysis, cells were extracted with 1% NP-40 lysis buffer (50 mM Tris-HCl pH 8.5 containing 1% NP-40, 150 mM NaCl, 10 mM EDTA, 10 mM NaF, 10 mM Na4P2O7, and 0.4 mM Na3VO4) with freshly added protease inhibitors (10 μg mL^−1 leupeptin, 4 μg mL^−1 pepstatin, and 0.1 U mL^−1 aprotinin). Lysates were centrifuged at 13,000× g for 10 min at 4 °C and the supernatants were collected and assayed for protein concentration with the Bradford assay method (Bio-Rad). Proteins were separated by SDS-PAGE (sodium dodecyl sulfate polyacrylamide gel electrophoresis) under reducing conditions. Following SDS-PAGE, proteins were transferred to nitrocellulose, reacted with specific antibodies, and then detected with peroxidase-conjugate secondary antibodies and chemioluminescent ECL reagent. Digital images were taken with the Bio-Rad ChemiDocTM Touch Imaging System and quantified using Bio-Rad Image Lab 5.2.1.
Figure 4 (A) Representative Western blot showing poly(ADP-ribose) (PAR) and PARP-1 expression following 72 h MSTO-211H cell treatment with diluent (Ctrl) or 5 µM concentrations of cisplatin (CDDP), 6, CDDP + 3-ABA combination (1:1 ratio), and 3-ABA alone. HSC70 protein was used as loading control. (B) Immunocytochemistry was used to capture representative γH2AX focus images following 72 h MSTO-211H cell treatment with diluent (Ctrl) or 5 µM of complex 6.

[5] = Lipophilicity by RP-HPLC (log k′); type: physicochemical; details: RP-HPLC C18, 15 mM formic acid/CH3OH 30/70
Excerpt: Since it has been reported that Pt(IV) complexes enter cells by passive diffusion only, with a few exceptions, the evaluation of lipophilicity is key because it is related to the ability of a molecule to passively cross cellular membranes. RP-HPLC techniques are often used to measure the lipophilicity of a compound, since the retention is due to partitioning between the C18 chains of the stationary phase (representing the cellular membrane) and the aqueous eluent (representing the water inside and outside cells). For this purpose, the retention times (tR) of the complexes were transformed as log k′, where k′ = (tR − t0)/t0) and t0 is the column dead-time (Table 1).
RP-HPLC was used to evaluate the capacity factors of the compounds as reported elsewhere. Briefly, a chromatogram for each Pt complex (0.5 mM) was run on a C18 column Phenosphere-NEXT (5-μm, 250 × 4.6 mm ID) with an eluant composition of 15 mM formic acid/CH3OH 30/70 and a flow rate of 0.5 mL min^−1. The corresponding retention time tR was used to calculate log k′, where k′ = (tR − t0)/t0. The dead time of the column t0 was the tR of KCl, added as unretained internal reference.

[6] = Reduction with ascorbic acid followed by RP-HPLC; type: physicochemical; details: ascorbic acid 10 mM, HEPES 50 mM pH 7.4, 37 °C, cosolvent DMF or MeOH
Protocol: To verify the activation by reduction mechanism, complexes 6–9 were challenged with the model bioreductant ascorbic acid (AA, 10 mM in water) in HEPES buffer (HEPES = 4-(2-hydroxyethyl)-1-piperazineethanesulfonic acid, 50 mM, pH = 7.4) at 37 °C. The reaction was monitored by following the RP-HPLC peaks over 24 h. The different solubility and retention times required different experimental conditions for the different compounds (cosolvent DMF or MeOH was necessary to maintain the Pt compounds in solution, >5% v/v). For these reasons, complete reduction for 8 and 9 was observed after 8 h, whereas for 6 and 7, the >85% peak area disappeared after 24 h only. […] Complexes 6–9, having very similar coordination skeletons, can be expected to behave in the same way.
The reduction of complexes with ascorbic acid was followed by monitoring of the reduction of the area of their chromatographic peaks via RP-HPLC over 24 h at 37 °C. The Pt compounds were dissolved in methanol or DMF (up to 20 mM) and diluted with different quantities of 50 mM 4-(2-hydroxyethyl)piperazine-1-ethanesulfonic acid (HEPES) buffer (pH = […]) containing 10 mM ascorbic acid. The mixtures were microfiltered to eliminate the precipitated complex. The chromatographic conditions were similar to those for the determination of lipophilicity (see Section 3.4), with different percentages of methanol depending on the complex.

[7] = 72 h treatment, mean ± sd, read-out: IC50 MSTO-211H

| IC50 [1, 7] [µM] | IC50 [2] [µM] | IC50 [3] [µM] | IC50 [4] [µM] | IC50 ([1]; Homo sapiens, MSTO-211H, read-out: IC50 on MSTO-211H) [µM] | Log k′ [5] | peak area disappeared after 24 h ([6]; 24 h) [%] | time to complete reduction [6] [h] | Structure (SMILES) | Pt Uptake (MSTO-211H cells) [ng Pt per 10^6 Cells] | PARP-1 cleavage (PARP-1) | PARP-1 parylation (PAR expression) (PARP-1) | ratio IC50 (cisplatin)/IC50 (Pt(IV) complex), MSTO-211H ([1]; 72 h treatment) | ratio IC50 (cisplatin)/IC50 (Pt(IV) complex), REN [2] | ratio IC50 (cisplatin)/IC50 (Pt(IV) complex), BR95 [3] | ratio IC50 (cisplatin)/IC50 (Pt(IV) complex), MM98 [4] |
| --- | --- | --- | --- | --- | --- | --- | --- | --- | --- | --- | --- | --- | --- | --- | --- |
|  |  |  |  | 5412 ± 28 |  |  |  | NC(=O)c1cccc(N)c1 [Compound 3-ABA, 3-aminobenzamide, reference compound] |  |  | No self-parylation of PARP-1 |  |  |  |  |
| 1.48 ± 0.02 | 2.22 ± 0.08 | 2.19 ± 0.13 | 0.45 ± 0.08 |  | 5.84 | > 85 |  | CC(=O)[O][Pt]([NH2])([NH2])([Cl])([Cl])[O]C(=O)CCCCCCNC(=O)c1cccc(NC(=O)OCC2c3ccccc3-c3ccccc32)c1 [Compound 7, (OC-6-44)-Acetato-[7-(3-(fmoc-amino)-benzamido)-heptanoato]-diammine-dichlorido-platinum(IV)] | 10.86 ± 1.17 |  |  | 0.77 | 1.4 | 0.98 | 3.9 |
| 54.9 ± 3.1 | 38.9 ± 2.2 | 39.7 ± 2.7 | 44.1 ± 3.5 |  | 0.34 |  | 8 | CC(=O)[O][Pt]([NH2])([NH2])([Cl])([Cl])[O]C(=O)CCCCCCNC(=O)c1cccc(N)c1 [Compound 9, (OC-6-44)-Acetato-[7-(3-aminobenzamido)-heptanoato]-diammine-dichlorido-platinum(IV)] | 3.12 ± 0.78 |  |  | 0.021 | 0.079 | 0.054 |  |

Continued, molecule first:

| Structure (SMILES) | IC50 [1, 7] [µM] | IC50 [2] [µM] | IC50 [3] [µM] | IC50 [4] [µM] | IC50 ([1]; Homo sapiens, MSTO-211H, read-out: IC50 on MSTO-211H) [µM] | Log k′ [5] | peak area disappeared after 24 h ([6]; 24 h) [%] | time to complete reduction [6] [h] | Pt Uptake (MSTO-211H cells) [ng Pt per 10^6 Cells] | PARP-1 cleavage (PARP-1) | PARP-1 parylation (PAR expression) (PARP-1) | ratio IC50 (cisplatin)/IC50 (Pt(IV) complex), MSTO-211H ([1]; 72 h treatment) | ratio IC50 (cisplatin)/IC50 (Pt(IV) complex), REN [2] | ratio IC50 (cisplatin)/IC50 (Pt(IV) complex), BR95 [3] | ratio IC50 (cisplatin)/IC50 (Pt(IV) complex), MM98 [4] |
| --- | --- | --- | --- | --- | --- | --- | --- | --- | --- | --- | --- | --- | --- | --- | --- |
| N.N.[Cl][Pt][Cl] [Cisplatin, CDDP, (SP-4-2)-diamminedichloridoplatinum(II), reference compound] | 1.14 ± 0.07 | 3.07 ± 0.43 | 2.15 ± 0.29 | 1.75 ± 0.09 |  |  |  |  | 9.23 ± 0.96 | did not induce PARP-1 cleavage | increase in PARP-1 parylation |  |  |  |  |
| CC(=O)[O][Pt]([NH2])([NH2])([Cl])([Cl])[O]C(=O)CCNC(=O)c1cccc(N)c1 [Compound 8, (OC-6-44)-Acetato[3-(3-aminobenzamido)-propanoato]-diammine-dichlorido-platinum(IV)] | 28.9 ± 2.9 | 46.9 ± 3.2 | 56.8 ± 4.3 | 58.4 ± 2.7 |  | 0.25 |  | 8 | 2.50 ± 1.16 |  |  | 0.039 | 0.065 | 0.038 | 0.030 |
